The text below walks through data of publication PMC5218480 (PLoS ONE, 2017).

This assay relates to MV-4-11 cells. Briefly: Gene expression microarray analysis (Affymetrix PrimeView) and GSEA. Also on record: RFU PODN (11730768_x_at) / Fold change /veh PODN (11730768_x_at) / RFU LINC00158 (11744669_a_at) / Fold change /veh LINC00158 (11744669_a_at) / RFU DUSP10 (11751237_a_at) / Fold change /veh DUSP10 (11751237_a_at) / RFU ID3 (11757404_x_at) / Fold change /veh ID3 (11757404_x_at) / RFU PLEKHG5 (11737974_s_at) / Fold change /veh PLEKHG5 (11737974_s_at) / RFU LRRC4B (11730491_at) / Fold change /veh LRRC4B (11730491_at) / RFU GIMAP4 (11747438_a_at) / Fold change /veh GIMAP4 (11747438_a_at) / RFU KRT8 (11758183_x_at) / Fold change /veh KRT8 (11758183_x_at) / RFU CNN1 (11734310_a_at) / Fold change /veh CNN1 (11734310_a_at) / RFU VPS37D (11726825_at) / Fold change /veh VPS37D (11726825_at) / RFU C10orf10 (11716522_x_at) / Fold change /veh C10orf10 (11716522_x_at) / RFU KIR2DL2 /// KIR2DL4 /// KIR2DL5A /// KIR2DL5B /// KIR2DS1 /// KIR2DS2 /// KIR2DS3 /// KIR2DS4 /// KIR3DL3 /// KIR3DL3 /// KIR3DS1 (11738374_at) / Fold change /veh KIR2DL2 /// KIR2DL4 /// KIR2DL5A /// KIR2DL5B /// KIR2DS1 /// KIR2DS2 /// KIR2DS3 /// KIR2DS4 /// KIR3DL3 /// KIR3DL3 /// KIR3DS1 (11738374_at) / RFU C1QL1 (11718748_at) / Fold change /veh C1QL1 (11718748_at) / RFU TMPRSS4 (11747572_a_at) / Fold change /veh TMPRSS4 (11747572_a_at) / RFU HAMP (11756126_x_at) / Fold change /veh HAMP (11756126_x_at) / RFU RNFT2 (11725882_a_at) / Fold change /veh RNFT2 (11725882_a_at) / RFU NR4A2 (11747474_a_at) / Fold change /veh NR4A2 (11747474_a_at) / RFU ABCC12 (11746883_a_at) / Fold change /veh ABCC12 (11746883_a_at) / RFU TMEM136 (11760407_x_at) / Fold change /veh TMEM136 (11760407_x_at) / RFU CLDN22 /// WWC2 (11732394_at) / Fold change /veh CLDN22 /// WWC2 (11732394_at) / RFU HLA-DPB1 (11760878_x_at) / Fold change /veh HLA-DPB1 (11760878_x_at) / RFU SPINT1 (11716480_a_at) / Fold change /veh SPINT1 (11716480_a_at) / RFU GAP43 (11754022_s_at) / Fold change /veh GAP43 (11754022_s_at) / RFU A4GNT (11735810_at) / Fold change /veh A4GNT (11735810_at) / RFU PRB3 (11715151_x_at) / Fold change /veh PRB3 (11715151_x_at) / RFU TUBB4B (11761932_at) / Fold change /veh TUBB4B (11761932_at) / RFU CAPN14 (11732068_a_at) / Fold change /veh CAPN14 (11732068_a_at) / RFU TMCC2 (11721928_a_at) / Fold change /veh TMCC2 (11721928_a_at) / RFU IRGQ (11745062_a_at) / Fold change /veh IRGQ (11745062_a_at) / RFU FAM174B (11720279_a_at) / Fold change /veh FAM174B (11720279_a_at) / RFU TMPRSS4 (11748680_a_at) / Fold change /veh TMPRSS4 (11748680_a_at) / RFU FAM212B (11763350_a_at) / Fold change /veh FAM212B (11763350_a_at) / RFU PLEKHG5 (11743358_a_at) / Fold change /veh PLEKHG5 (11743358_a_at) / RFU ZSCAN30 (11745921_a_at) / Fold change /veh ZSCAN30 (11745921_a_at) / RFU CMKLR1 (11741424_a_at) / Fold change /veh CMKLR1 (11741424_a_at) / RFU LOC101060620 /// MAPK8IP1 (11723275_at) / Fold change /veh LOC101060620 /// MAPK8IP1 (11723275_at) / RFU SPTSSB (11747773_x_at) / Fold change /veh SPTSSB (11747773_x_at) / RFU PRSS12 (11739890_at) / Fold change /veh PRSS12 (11739890_at) / RFU BIN1 (11741810_x_at) / Fold change /veh BIN1 (11741810_x_at) / RFU WNT11 (11732464_a_at) / Fold change /veh WNT11 (11732464_a_at) / RFU C10orf10 (11716521_a_at) / Fold change /veh C10orf10 (11716521_a_at) / RFU C5orf56 (11738089_at) / Fold change /veh C5orf56 (11738089_at) / RFU CYB561 (11721691_x_at) / Fold change /veh CYB561 (11721691_x_at) / RFU ANKRD19P (11752326_a_at) / Fold change /veh ANKRD19P (11752326_a_at) / RFU OR2T12 /// OR2T33 /// OR2T8 (11738714_s_at) / Fold change /veh OR2T12 /// OR2T33 /// OR2T8 (11738714_s_at) / RFU VCAN (11748164_a_at) / Fold change /veh VCAN (11748164_a_at) / RFU JSRP1 (11732532_at) / Fold change /veh JSRP1 (11732532_at) / RFU KRTAP10-11 (11738290_x_at) / Fold change /veh KRTAP10-11 (11738290_x_at) / RFU MYO3A (11730013_a_at) / Fold change /veh MYO3A (11730013_a_at) / RFU EBF3 (11725865_a_at) / Fold change /veh EBF3 (11725865_a_at) / RFU CAMK2N1 (11719241_x_at) / Fold change /veh CAMK2N1 (11719241_x_at) / RFU C5orf56 (11738088_a_at) / Fold change /veh C5orf56 (11738088_a_at) / RFU OLFML3 (11715873_a_at) / Fold change /veh OLFML3 (11715873_a_at) / RFU LOC100653217 /// NTM (11731650_a_at) / Fold change /veh LOC100653217 /// NTM (11731650_a_at) / RFU MAPK11 (11762145_a_at) / Fold change /veh MAPK11 (11762145_a_at) / RFU FIZ1 (11724087_x_at) / Fold change /veh FIZ1 (11724087_x_at) / RFU OASL (11726364_x_at) / Fold change /veh OASL (11726364_x_at) / RFU SOX15 (11748057_x_at) / Fold change /veh SOX15 (11748057_x_at) / RFU CD79A (11719716_a_at) / Fold change /veh CD79A (11719716_a_at) / RFU HIST1H1D (11736915_at) / Fold change /veh HIST1H1D (11736915_at) / RFU CASKIN2 (11723855_a_at) / Fold change /veh CASKIN2 (11723855_a_at) / RFU LOC730098 (11760151_x_at) / Fold change /veh LOC730098 (11760151_x_at) / RFU OR4N2 (11742367_at) / Fold change /veh OR4N2 (11742367_at) / RFU PRRT2 (11749266_a_at) / Fold change /veh PRRT2 (11749266_a_at) / RFU SNX32 (11753110_a_at) / Fold change /veh SNX32 (11753110_a_at) / RFU CDHR5 (11726645_a_at) / Fold change /veh CDHR5 (11726645_a_at) / RFU RCAN1 (11760418_a_at) / Fold change /veh RCAN1 (11760418_a_at) / RFU FAM167A (11723789_a_at) / Fold change /veh FAM167A (11723789_a_at) / RFU FAM26E (11764081_at) / Fold change /veh FAM26E (11764081_at) / RFU ISYNA1 (11749810_s_at) / Fold change /veh ISYNA1 (11749810_s_at) / RFU ACY1 (11761880_at) / Fold change /veh ACY1 (11761880_at) / RFU 11764098_at / Fold change /veh 11764098_at / RFU SAMD14 (11745864_x_at) / Fold change /veh SAMD14 (11745864_x_at) / RFU NPB (11741838_a_at) / Fold change /veh NPB (11741838_a_at) / RFU TMPRSS6 (11731388_a_at) / Fold change /veh TMPRSS6 (11731388_a_at) / RFU KRTAP10-2 (11738614_at) / Fold change /veh KRTAP10-2 (11738614_at) / RFU ARHGAP8 /// PRR5-ARHGAP8 (11727945_x_at) / Fold change /veh ARHGAP8 /// PRR5-ARHGAP8 (11727945_x_at) / RFU KRTAP5-7 /// NADSYN1 (11734609_at) / Fold change /veh KRTAP5-7 /// NADSYN1 (11734609_at) / RFU RASL12 (11751679_a_at) / Fold change /veh RASL12 (11751679_a_at) / RFU CDKN2B (11736163_a_at) / Fold change /veh CDKN2B (11736163_a_at) / RFU PRF1 (11729649_at) / Fold change /veh PRF1 (11729649_at) / RFU, ZNF638 /// ZNF638-IT1 / Fold change vs veh, ZNF638 /// ZNF638-IT1 / RFU, PANK3 / Fold change vs veh, PANK3 / RFU, SH3YL1 / Fold change vs veh, SH3YL1 / RFU, ZEB2 / Fold change vs veh, ZEB2 / RFU, NRIP1 / Fold change vs veh, NRIP1 / RFU, PTTG1IP / Fold change vs veh, PTTG1IP / RFU, CAPN2 / Fold change vs veh, CAPN2 / RFU, MED14 / Fold change vs veh, MED14 / RFU, SNORA58 / Fold change vs veh, SNORA58 / RFU, C1orf63 / Fold change vs veh, C1orf63 / RFU, LRRFIP1 / Fold change vs veh, LRRFIP1 / RFU, NDUFAF7 / Fold change vs veh, NDUFAF7 / RFU, SLC12A2 / Fold change vs veh, SLC12A2 / RFU, IBTK / Fold change vs veh, IBTK / RFU, ESF1 / Fold change vs veh, ESF1 / Fold change vs veh, TMEM50B / RFU, TAOK1 / Fold change vs veh, TAOK1 / RFU, ACBD3 / Fold change vs veh, ACBD3 / RFU, TMA16 / Fold change vs veh, TMA16 / RFU, RWDD3 / Fold change vs veh, RWDD3 / RFU, BCAT1 / Fold change vs veh, BCAT1 / RFU, EDEM3 / Fold change vs veh, EDEM3 / RFU, TMEM33 / Fold change vs veh, TMEM33 / RFU, WDR75 / Fold change vs veh, WDR75 / RFU, AHCTF1 / Fold change vs veh, AHCTF1 / RFU, TFRC / Fold change vs veh, TFRC / RFU, ZDHHC17 / Fold change vs veh, ZDHHC17 / RFU, NOM1 / Fold change vs veh, NOM1 / RFU, ARL8B / Fold change vs veh, ARL8B / RFU, ZBTB11 / Fold change vs veh, ZBTB11 / RFU, TAMM41 / Fold change vs veh, TAMM41 / RFU, KIAA1704 /// LOC100996395 / Fold change vs veh, KIAA1704 /// LOC100996395 / RFU, ING1 / Fold change vs veh, ING1 / RFU, TRMT61B / Fold change vs veh, TRMT61B / RFU, FUBP3 / Fold change vs veh, FUBP3 / RFU, TP53 / Fold change vs veh, TP53 / RFU, TNKS2 / Fold change vs veh, TNKS2 / RFU, ZFP14 / Fold change vs veh, ZFP14 / RFU, ACTR2 / Fold change vs veh, ACTR2 / RFU, PPP3R1 / Fold change vs veh, PPP3R1 / RFU, PIK3R1 / Fold change vs veh, PIK3R1 / RFU, HNRNPA1 / Fold change vs veh, HNRNPA1 / RFU, RNF170 / Fold change vs veh, RNF170 / RFU, ZNF28 / Fold change vs veh, ZNF28 / RFU, RNGTT / Fold change vs veh, RNGTT / RFU, OGT / Fold change vs veh, OGT / RFU, BRD1 / Fold change vs veh, BRD1 / RFU, MARS / Fold change vs veh, MARS / RFU, ZNF655 / Fold change vs veh, ZNF655 / RFU, FAHD1 / Fold change vs veh, FAHD1 / RFU, BDP1 / Fold change vs veh, BDP1 / RFU, LRRCC1 / Fold change vs veh, LRRCC1 / RFU, ARID1A / Fold change vs veh, ARID1A / RFU, ZNF146 / Fold change vs veh, ZNF146 / RFU, ZNF330 / Fold change vs veh, ZNF330 / RFU, GPN3 / Fold change vs veh, GPN3 / RFU, C9orf123 / Fold change vs veh, C9orf123 / RFU, N4BP2L2 / Fold change vs veh, N4BP2L2 / RFU, ARFIP1 / Fold change vs veh, ARFIP1 / RFU, FAM179B / Fold change vs veh, FAM179B / RFU, BCL10 / Fold change vs veh, BCL10 / RFU, UHRF1BP1L / Fold change vs veh, UHRF1BP1L / RFU, BET1 / Fold change vs veh, BET1 / RFU, CNOT2 / Fold change vs veh, CNOT2 / RFU, ZNF268 / Fold change vs veh, ZNF268 / Fold change vs veh, ZNF507 / RFU, DGCR2 / Fold change vs veh, DGCR2 / RFU, WDSUB1 / Fold change vs veh, WDSUB1 / Fold change vs veh, HSP90B1 /// MIR3652 / RFU, ADSS / Fold change vs veh, ADSS / RFU, GK / Fold change vs veh, GK / RFU, ZNF148 / Fold change vs veh, ZNF148 / RFU, TAF9 / Fold change vs veh, TAF9 / RFU, SLC1A5 / Fold change vs veh, SLC1A5 / RFU, SLMO2 / Fold change vs veh, SLMO2 / RFU, ABCC4 / Fold change vs veh, ABCC4 / RFU, LOC101060439 /// RAP1B / Fold change vs veh, LOC101060439 /// RAP1B / RFU, RFX7 / Fold change vs veh, RFX7 / RFU, GTPBP10 / Fold change vs veh, GTPBP10 / RFU, CNEP1R1 / Fold change vs veh, CNEP1R1 / RFU, BIVM-ERCC5 /// ERCC5 / Fold change vs veh, BIVM-ERCC5 /// ERCC5 / RFU, ILF3 / Fold change vs veh, ILF3 / RFU 11762660_at / Fold change /veh 11762660_at / RFU VCAN (11757783_s_at) / Fold change /veh VCAN (11757783_s_at) / RFU DDX43 (11728927_at) / Fold change /veh DDX43 (11728927_at) / RFU KRT8 (11758188_x_at) / Fold change /veh KRT8 (11758188_x_at) / RFU NKD1 (11759106_at) / Fold change /veh NKD1 (11759106_at) / RFU SRD5A1 (11742802_a_at) / Fold change /veh SRD5A1 (11742802_a_at) / RFU TPSAB1 /// TPSB2 (11721975_s_at) / Fold change /veh TPSAB1 /// TPSB2 (11721975_s_at) / RFU GSTM3 (11746129_a_at) / Fold change /veh GSTM3 (11746129_a_at) / RFU IL23R (11737362_x_at) / Fold change /veh IL23R (11737362_x_at) / RFU TMEM51 (11727254_a_at) / Fold change /veh TMEM51 (11727254_a_at) / RFU PIWIL2 (11732686_x_at) / Fold change /veh PIWIL2 (11732686_x_at) / RFU ORM1 (11744905_x_at) / Fold change /veh ORM1 (11744905_x_at) / RFU CCDC152 (11743942_at) / Fold change /veh CCDC152 (11743942_at) / RFU ECM1 (11717891_a_at) / Fold change /veh ECM1 (11717891_a_at) / RFU IL23R (11748794_a_at) / Fold change /veh IL23R (11748794_a_at) / RFU TNFAIP8L3 (11732012_x_at) / Fold change /veh TNFAIP8L3 (11732012_x_at) / RFU MBOAT4 (11741988_at) / Fold change /veh MBOAT4 (11741988_at) / RFU 11764193_at / Fold change /veh 11764193_at / RFU TMEM53 (11763286_at) / Fold change /veh TMEM53 (11763286_at) / RFU MAGEB2 (11727129_at) / Fold change /veh MAGEB2 (11727129_at) / RFU TMEM200A (11744735_a_at) / Fold change /veh TMEM200A (11744735_a_at) / RFU CCDC152 (11751479_a_at) / Fold change /veh CCDC152 (11751479_a_at) / RFU FAM211A (11726209_a_at) / Fold change /veh FAM211A (11726209_a_at) / RFU RGS16 (11746705_a_at) / Fold change /veh RGS16 (11746705_a_at) / RFU VCAN (11755009_s_at) / Fold change /veh VCAN (11755009_s_at) / RFU RHOB (11743442_s_at) / Fold change /veh RHOB (11743442_s_at) / RFU RGS16 (11720943_a_at) / Fold change /veh RGS16 (11720943_a_at) / RFU RGS16 (11720944_at) / Fold change /veh RGS16 (11720944_at) / RFU, VPS4B / Fold change vs veh, VPS4B / RFU, CREB1 / Fold change vs veh, CREB1 / RFU, DNAJC13 / Fold change vs veh, DNAJC13 / RFU, GNAQ / Fold change vs veh, GNAQ / RFU, CDK5R1 / Fold change vs veh, CDK5R1 / RFU, ZRANB3 / Fold change vs veh, ZRANB3 / RFU, CUL4A / Fold change vs veh, CUL4A / RFU, CCNY / Fold change vs veh, CCNY / RFU, UFL1 / Fold change vs veh, UFL1 / RFU, COG3 / Fold change vs veh, COG3 / RFU, DIAPH2 / Fold change vs veh, DIAPH2 / RFU, SKA2 / Fold change vs veh, SKA2 / RFU, AFF3 / Fold change vs veh, AFF3 / RFU, LMF1 / Fold change vs veh, LMF1 / RFU, IPO11 / Fold change vs veh, IPO11 / RFU, DFFB / Fold change vs veh, DFFB / RFU, FOXP1 / Fold change vs veh, FOXP1 / RFU, CARD8 / Fold change vs veh, CARD8 / RFU, STRN3 / Fold change vs veh, STRN3 / RFU, ADK / Fold change vs veh, ADK / RFU, RASSF2 / Fold change vs veh, RASSF2 / RFU, WIPF1 / Fold change vs veh, WIPF1 / RFU, LARP1B / Fold change vs veh, LARP1B / RFU, RASA1 / Fold change vs veh, RASA1 / RFU, RB1 / Fold change vs veh, RB1 / RFU, PPFIA1 / Fold change vs veh, PPFIA1 / RFU, MAT2A / Fold change vs veh, MAT2A / RFU, CCT5 / Fold change vs veh, CCT5 / RFU, WDR92 / Fold change vs veh, WDR92 / RFU, CUX1 / Fold change vs veh, CUX1 / RFU, TTC7A / Fold change vs veh, TTC7A / RFU, TMEM135 / Fold change vs veh, TMEM135 / RFU, DEPTOR / Fold change vs veh, DEPTOR / RFU, CPM / Fold change vs veh, CPM / RFU, DNAJB6 / Fold change vs veh, DNAJB6 / RFU, CACNA2D3 / Fold change vs veh, CACNA2D3 / RFU, DTX4 / Fold change vs veh, DTX4 / RFU, TFCP2 / Fold change vs veh, TFCP2 / RFU, GMCL1 /// GMCL1P1 / Fold change vs veh, GMCL1 /// GMCL1P1 / RFU, AEBP2 / Fold change vs veh, AEBP2 / RFU, SNHG1 /// SNORD22 /// SNORD25 /// SNORD26 /// SNORD27 /// SNORD28 /// SNORD29 /// SNORD31 / Fold change vs veh, SNHG1 /// SNORD22 /// SNORD25 /// SNORD26 /// SNORD27 /// SNORD28 /// SNORD29 /// SNORD31 / Fold change (Aza/veh), C12orf56 (ProbeSet 11735607_a_at) / Fold change (ACY-1035/veh), C12orf56 (ProbeSet 11735607_a_at) / Fold change (Aza/veh), FGFR1OP (ProbeSet 11751329_s_at) / Fold change (ACY-1035/veh), FGFR1OP (ProbeSet 11751329_s_at) / Fold change (Aza/veh), VPS36 (ProbeSet 11739960_a_at) / Fold change (ACY-1035/veh), VPS36 (ProbeSet 11739960_a_at) / RFU SYPL1 (11715823_x_at) / Fold change /veh SYPL1 (11715823_x_at) / RFU IGFBP7 (11715501_s_at) / Fold change /veh IGFBP7 (11715501_s_at) / RFU REEP3 (11722064_at) / Fold change /veh REEP3 (11722064_at) / RFU IGLL1 (11728026_x_at) / Fold change /veh IGLL1 (11728026_x_at): dose or concentration left out as unconfirmed. It is filed as cell-based, human. Particulars: MV-4-11 cells, 48 hours.

In the case of `Nc1ncn([C@@H]2O[C@H](CO)[C@@H](O)[C@H]2O)c(=O)n1` [azacitidine], the “RFU ANKRD19P (11752326_a_at)” value was 6.34 RFU.
